Reference: patent publication US8962313B2, “Method for the simultaneous induction of CTL and γδT cell” (Medinet Co., Ltd., priority 2008, dated 2015)

Experiments:
Type in all cases: cell-based, human
[1] = test system: γδT cells in peripheral blood mononuclear cells; assay: Induction of γδT cells (TCRVγ9-expressing cells) in cultured peripheral blood mononuclear cells, FACS; settings: 5 μM zoledronic acid, 1,000 U/mL IL-2, Disease Antigen (+) = plus 2 μg/ml Mart-1 (A27L)
Description: (§1) 1) Peripheral blood (42 ml) was collected from a healthy donor and peripheral blood mononuclear cells were separated therefrom using a density gradient solution for blood cell separation.
(§2) 2) The resultant peripheral blood mononuclear cells were suspended in AIM-V.
(§3) 3) These peripheral blood mononuclear cells (8×10^6/4 mL) were seeded in a 6-well plate (SUMILON). Thereto was added 1,000 U/mL IL-2, to which 5 μM zoledronic acid (ZOMETA (trade name)) and 2 μg/ml Mart-1 (A27L, sequence: […]) as a peptide were further added, followed by starting culture under conditions of 37° C. and 5% CO2 concentration.
(§4) 4) In addition, AB serum was added in an amount of 10% after starting the culture.
(§5) 5) AIM-V containing 1,000 U/ml IL-2 and AB serum were added depending on the proliferation of cells, which were then cultured for 14 days.
(§6) 6) In the cell population obtained after culture for 7 days or 14 days as described above, the percentage of disease antigen specific CD8-positive T cells and the percentage of cells expressing TCRVγ9 were measured using an anti-CD8 antibody (BD Pharmingen), T-Select HLA-A*0201 Mart-1 Tetramer […] (MBL), an anti-TCRVγ9 antibody (Beckman Coulter) and an anti-CD3 antibody (Beckman Coulter) with a fluorescence-activated cell sorter (hereinafter referred to as FACS; Epics XL-MCL ADC, Beckman Coulter).

[2] = test system: disease antigen specific CD8-positive T cells in peripheral blood mononuclear cells; assay: Induction of disease antigen specific CD8-positive T cells (CTLs) in cultured peripheral blood mononuclear cells, FACS with Mart-1 tetramer; settings: 5 μM zoledronic acid, 1,000 U/mL IL-2, Disease Antigen (+) = plus 2 μg/ml Mart-1 (A27L)
Description: as §1, §2, §3, §4, §5, §6

CD56 on γδT cells = assay: Surface antigen (CD3, Vγ9-TCR, CD56) expression ratio of γδT cells in cultured peripheral blood mononuclear cells, FACS; settings: Day 13 of culture; 5 μM zoledronic acid, 1,000 U/mL IL-2; Disease Antigen (+) = plus 2 μg/ml Mart-1 (A27L)
Description: Whether the addition of a disease antigen affects the expression ratio of CD56 on γδT Cells or not was examined by the following procedures. CD56 is an isoform of a neural cell adhesion molecule (N-CAM) and an adhesion factor known as a marker for NK cells. It is one of the markers providing indicators of the cytotoxic activity of γδT cells.
1) Peripheral blood (8 ml) was collected from a healthy donor and peripheral blood mononuclear cells were separated therefrom using a density gradient solution for blood cell separation.
as §2
3) These peripheral blood mononuclear cells (1.8×10^6/[…]) were seeded in a 12-well plate (SUMILON). Thereto was added 1,000 U/mL IL-2, to which 5 μM zoledronic acid (ZOMETA) and 2 μg/ml Mart-1 (A27L) as a peptide were further added, followed by starting culture under conditions of 37° C. and 5% CO2 concentration.
as §4
5) AIM-V containing 1,000 U/ml IL-2 and AB serum were added depending on the proliferation of cells, which were then cultured for up to 14 days.
6) In the cell population obtained after culture for up to 14 days as described above, the percentage of cells expressing TCRVγ9 or the percentage of cells expressing CD-56 were measured using an anti-TCRVγ9 antibody (Beckman Coulter), an anti-CD56 antibody (Beckman Coulter) and an anti-CD3 antibody (Beckman Coulter) with FACS (Epics XL-MCL ADC, Beckman Coulter).

O=P(O)(O)C(O)(Cn1ccnc1)P(=O)(O)O [zoledronic acid]
Expansion Fold (times) of γδT Cells Contained in Mononuclear Cells ([1]; Donor A, 7 days of culture): 50.40 times | Percentage (%) of γδT Cells Contained in Mononuclear Cells ([1]; Donor A, 7 days of culture): 43.7% | Expansion Fold (times) of γδT Cells Contained in Mononuclear Cells ([1]; Donor A, 14 days of culture): 4027.31 times | Percentage (%) of γδT Cells Contained in Mononuclear Cells ([1]; Donor A, 14 days of culture): 80.9% | Expansion Fold (times) of γδT Cells Contained in Mononuclear Cells ([1]; Donor B, 7 days of culture): 31.31 times | Percentage (%) of γδT Cells Contained in Mononuclear Cells ([1]; Donor B, 7 days of culture): 68.2% | Expansion Fold (times) of γδT Cells Contained in Mononuclear Cells ([1]; Donor B, 14 days of culture): 1328.85 times | Percentage (%) of γδT Cells Contained in Mononuclear Cells ([1]; Donor B, 14 days of culture): 99.0% | Expansion Fold (times) of γδT Cells Contained in Mononuclear Cells ([1]; Donor C, 7 days of culture): 4.97 times | Percentage (%) of γδT Cells Contained in Mononuclear Cells ([1]; Donor C, 7 days of culture): 28.6% | Expansion Fold (times) of γδT Cells Contained in Mononuclear Cells ([1]; Donor C, 14 days of culture): 1244.02 times | Percentage (%) of γδT Cells Contained in Mononuclear Cells ([1]; Donor C, 14 days of culture): 89.2% | Expansion Fold (times) of Disease Antigen Specific CD8-Positive T Cells Contained in Mononuclear Cells ([2]; Donor A, 7 days of culture): 0.00 times | Percentage (%) of Disease Antigen Specific CD8-Positive T Cells Contained in Mononuclear Cells ([2]; Donor A, 7 days of culture): 0.00% | Expansion Fold (times) of Disease Antigen Specific CD8-Positive T Cells Contained in Mononuclear Cells ([2]; Donor A, 14 days of culture): 0.00 times | Percentage (%) of Disease Antigen Specific CD8-Positive T Cells Contained in Mononuclear Cells ([2]; Donor A, 14 days of culture): 0.00% | Expansion Fold (times) of Disease Antigen Specific CD8-Positive T Cells Contained in Mononuclear Cells ([2]; Donor B, 7 days of culture): 1.79 times | Percentage (%) of Disease Antigen Specific CD8-Positive T Cells Contained in Mononuclear Cells ([2]; Donor B, 7 days of culture): 0.01% | Expansion Fold (times) of Disease Antigen Specific CD8-Positive T Cells Contained in Mononuclear Cells ([2]; Donor B, 14 days of culture): 0.00 times | Percentage (%) of Disease Antigen Specific CD8-Positive T Cells Contained in Mononuclear Cells ([2]; Donor B, 14 days of culture): 0.00% | Expansion Fold (times) of Disease Antigen Specific CD8-Positive T Cells Contained in Mononuclear Cells ([2]; Donor C, 7 days of culture): 0.57 times | Percentage (%) of Disease Antigen Specific CD8-Positive T Cells Contained in Mononuclear Cells ([2]; Donor C, 7 days of culture): 0.02% | Expansion Fold (times) of Disease Antigen Specific CD8-Positive T Cells Contained in Mononuclear Cells ([2]; Donor C, 14 days of culture): 0.00 times | Percentage (%) of Disease Antigen Specific CD8-Positive T Cells Contained in Mononuclear Cells ([2]; Donor C, 14 days of culture): 0.00% | Surface Antigen Expression Ratio (%): CD3, Gate Area Live Cells (CD56 on γδT cells): 98.5% | Surface Antigen Expression Ratio (%): CD56, Gate Area CD3 (CD56 on γδT cells): 53.1% | Surface Antigen Expression Ratio (%): CD56, Gate Area Live Cells (CD56 on γδT cells): 54.4% | Surface Antigen Expression Ratio (%): CD56, Gate Area Vγ9 (CD56 on γδT cells): 53.1% | Surface Antigen Expression Ratio (%): Vγ9-TCR, Gate Area Live Cells (CD56 on γδT cells): 97.0%
